# Laboratory results: patent publication US9073855B2, “BCL-2 selective apoptosis-inducing agents for the treatment of cancer and immune diseases” (AbbVie Inc., priority 2008, dated 2015)
# Like-named read-outs stand apart in the source and are kept apart here.
# How the values were obtained:
# FL5.12/Bcl-2 cells = assay: FL5.12/Bcl-2 cell viability assay under IL-3 withdrawal (CellTitre Glo); type: cell-based, murine; settings: Mus musculus, IL-3 withdrawn 48 hrs, then 24 hrs with compound
# Procedure, shortened: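 Murine IL-3-dependent FL5.12 cells stably overexpressing Bcl-2 were deprived of IL-3 (WEHI-3B conditioned medium) for 48 h, then exposed to various compound concentrations for 24 h at 37 °C. Viability read by CellTiter-Glo luminescence.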
# circulating platelets [1] = settings: following injection in beagle canines; cited from earlier work
# Canine platelets = assay: Platelet cell viability assay (platelet-rich plasma, Cell Titer Glo); type: cell-based; settings: Canis lupus familiaris, 5 h, isolated canine platelets ex vivo, five hours at 37° C.
# Procedure, shortened: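 Isolated canine platelets were incubated ex vivo with a range of compound concentrations. After 20 min equilibration at room temperature, viability was measured by Cell Titer Glo luminescence.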
# circulating platelets [2] = settings: following injection into C57BL/6 mice; cited from earlier work
# GST-Bcl-2 = GST-Bcl-2 (Homo sapiens, UniProt P10415); assay: TR-FRET binding assay, GST-Bcl-2 with F-Bak peptide probe; settings: TR-FRET Binding Affinity, GST-Bcl-2, F-Bak peptide probe
# Procedure, shortened: (§1)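 Compounds were serially diluted in DMSO from a 50 μM starting solution (2× the starting concentration; 10% DMSO). Plates were incubated for 3 h at room temperature, and TR-FRET was read with 340/35 nm excitation and emission at 520/525 nm (F-Bak) and 495/510 nm (Tb antibody). Ki values were calculated using Wang's competitive-binding equation.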
# GST-Bcl-XL = GST-Bcl-XL (Homo sapiens, UniProt Q07817); assay: TR-FRET binding assay, GST-Bcl-XL with F-Bak peptide probe; settings: TR-FRET Binding Affinity, GST-Bcl-XL, F-Bak peptide probe
# Procedure, shortened: as §1
# GST-Bcl-2, sequence (P10415 whole entry): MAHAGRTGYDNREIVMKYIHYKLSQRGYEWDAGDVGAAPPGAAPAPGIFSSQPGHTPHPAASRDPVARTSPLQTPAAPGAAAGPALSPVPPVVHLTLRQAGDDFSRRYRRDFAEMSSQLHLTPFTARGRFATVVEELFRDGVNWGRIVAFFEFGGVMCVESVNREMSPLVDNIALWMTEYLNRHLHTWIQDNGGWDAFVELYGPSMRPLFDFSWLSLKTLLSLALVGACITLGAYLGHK
# GST-Bcl-XL, sequence (Q07817 whole entry): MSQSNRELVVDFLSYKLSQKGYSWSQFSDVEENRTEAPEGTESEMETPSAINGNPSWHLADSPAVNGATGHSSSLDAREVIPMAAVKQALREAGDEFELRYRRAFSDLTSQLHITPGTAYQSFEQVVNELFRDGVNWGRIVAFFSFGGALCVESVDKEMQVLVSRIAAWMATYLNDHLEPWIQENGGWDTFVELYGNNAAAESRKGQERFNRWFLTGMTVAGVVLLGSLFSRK
Structure (SMILES),EC50 (FL5.12/Bcl-2 cells) [nM],effect on circulating platelets (circulating platelets [1]),EC50 (Canine platelets) [nM],effect on circulating platelets (circulating platelets [2]),Ki (GST-Bcl-2) [nM],Ki (GST-Bcl-XL) [nM]
"CN(C)CC[C@H](CSc1ccccc1)Nc1ccc(S(=O)(=O)NC(=O)c2ccc(N3CCN(Cc4ccccc4-c4ccc(Cl)cc4)CC3)cc2)cc1[N+](=O)[O-] [ABT-737, 4-(4-((4′-chloro-1,1′-biphenyl-2-yl)methyl)piperazin-1-yl)-N-((4-(((1R)-3-(dimethylamino)-1-((phenylthio)methyl)propyl)amino)-3-nitrophenyl)sulfonyl)benzamide, reference compound]",25,"rapid, concentration dependant decrease in circulating platelets",282,"rapid, concentration dependant decrease in circulating platelets",–,–
"CN1CCC(CNc2ccc(S(=O)(=O)NC(=O)c3ccc(N4CCN(CC5=C(c6ccc(Cl)cc6)CC(C)(C)CC5)CC4)cc3Oc3cccc4[nH]ccc34)cc2[N+](=O)[O-])CC1 [Example 105, 4-(4-{[2-(4-chlorophenyl)-4,4-dimethylcyclohex-1-en-1-yl]methyl}piperazin-1-yl)-2-(1H-indol-4-yloxy)-N-[(4-{[(1-methylpiperidin-4-yl)methyl]amino}-3-nitrophenyl)sulfonyl]benzamide]",13,–,30300,–,0.08,5.02
"O=C(NS(=O)(=O)c1ccc(NCC2CCOCC2)c([N+](=O)[O-])c1)c1ccc(N2CCN(Cc3cc(CCN4CCCC4)ccc3-c3ccc(Cl)cc3)CC2)cc1Oc1cccc2[nH]ccc12 [Example 25, 4-(4-{[4′-chloro-4-(2-pyrrolidin-1-ylethyl)-1,1′-biphenyl-2-yl]methyl}piperazin-1-yl)-2-(1H-indol-4-yloxy)-N-({3-nitro-4-[(tetrahydro-2H-pyran-4-ylmethyl)amino]phenyl}sulfonyl)benzamide]",49,–,> 50000,–,0.05,205
"CN(C)CCCNc1ccc(S(=O)(=O)NC(=O)c2ccc(N3CCN(CC4=C(c5ccc(Cl)cc5)CC(C)(C)CC4)CC3)cc2Oc2ccc3[nH]ccc3c2)cc1S(=O)(=O)C(F)(F)F [Example 170, 4-(4-{[2-(4-chlorophenyl)-4,4-dimethylcyclohex-1-en-1-yl]methyl}piperazin-1-yl)-N-({4-{[3-(dimethylamino)propyl]amino}-3-[(trifluoromethyl)sulfonyl]phenyl}sulfonyl)-2-(1H-indol-5-yloxy)benzamide]",15,–,7350,–,0.126,3.8
"CN1CCC(Nc2ccc(S(=O)(=O)NC(=O)c3ccc(N4CCN(CC5=C(c6ccc(Cl)cc6)CC(C)(C)CC5)CC4)cc3Oc3ccccc3)cc2[N+](=O)[O-])CC1 [Example 152, 4-(4-{[2-(4-chlorophenyl)-4,4-dimethylcyclohex-1-en-1-yl]methyl}piperazin-1-yl)-N-({4-[(1-methylpiperidin-4-yl)amino]-3-nitrophenyl}sulfonyl)-2-phenoxybenzamide]",9,–,2660,–,0.026,0.412
"CN1CCC(Nc2ccc(S(=O)(=O)NC(=O)c3ccc(N4CCN(CC5=C(c6ccc(Cl)cc6)CCCCC5)CC4)cc3Oc3ccc4[nH]ccc4c3)cc2[N+](=O)[O-])CC1 [Example 151, 4-(4-{[2-(4-chlorophenyl)cyclohept-1-en-1-yl]methyl}piperazin-1-yl)-2-(1H-indol-5-yloxy)-N-({4-[(1-methylpiperidin-4-yl)amino]-3-nitrophenyl}sulfonyl)benzamide]",49,–,31400,–,0.162,> 660
"CN1CCC(Nc2ccc(S(=O)(=O)NC(=O)c3ccc(N4CCN(CC5=C(c6ccc(Cl)cc6)CC(C)(C)CC5)CC4)cc3Oc3cccc4[nH]ccc34)cc2[N+](=O)[O-])CC1 [Example 103, 4-(4-{[2-(4-chlorophenyl)-4,4-dimethylcyclohex-1-en-1-yl]methyl}piperazin-1-yl)-2-(1H-indol-4-yloxy)-N-({4-[(1-methylpiperidin-4-yl)amino]-3-nitrophenyl}sulfonyl)benzamide]",14,–,31400,–,0.056,117
"CC1(C)CCC(CN2CCN(c3ccc(C(=O)NS(=O)(=O)c4ccc(NCCCN5CCOCC5)c([N+](=O)[O-])c4)c(Oc4ccccc4)c3)CC2)=C(c2ccc(Cl)cc2)C1 [Example 18, 4-(4-{[2-(4-chlorophenyl)-4,4-dimethylcyclohex-1-en-1-yl]methyl}piperazin-1-yl)-N-({4-[(3-morpholin-4-ylpropyl)amino]-3-nitrophenyl}sulfonyl)-2-phenoxybenzamide]",123,–,29700,–,0.238,8.13
"CN(C)CCCNc1ccc(S(=O)(=O)NC(=O)c2ccc(N3CCN(CC4=C(c5ccc(Cl)cc5)CC(C)(C)CC4)CC3)cc2Oc2ccc3[nH]ccc3c2)cc1[N+](=O)[O-] [Example 53, 4-(4-{[2-(4-chlorophenyl)-4,4-dimethylcyclohex-1-en-1-yl]methyl}piperazin-1-yl)-N-[(4-{[3-(dimethylamino)propyl]amino}-3-nitrophenyl)sulfonyl]-2-(1H-indol-5-yloxy)benzamide]",11,–,18300,–,0.081,4.85
"CN(C)CCCNc1ccc(S(=O)(=O)NC(=O)c2ccc(N3CCN(CC4=C(c5ccc(Cl)cc5)CCC(C)(C)C4)CC3)cc2Oc2cccc3[nH]ccc23)cc1[N+](=O)[O-] [Example 56, 4-(4-{[2-(4-chlorophenyl)-5,5-dimethylcyclohex-1-en-1-yl]methyl}piperazin-1-yl)-N-[(4-{[3-(dimethylamino)propyl]amino}-3-nitrophenyl)sulfonyl]-2-(1H-indol-4-yloxy)benzamide]",49,–,27000,–,0.268,12.9
"CN1CCC(Nc2ccc(S(=O)(=O)NC(=O)c3ccc(N4CCN(CC5=C(c6ccc(Cl)cc6)CC(C)(C)CC5)CC4)cc3Oc3ccc4[nH]ncc4c3)cc2[N+](=O)[O-])CC1 [Example 21, 4-(4-{[2-(4-chlorophenyl)-4,4-dimethylcyclohex-1-en-1-yl]methyl}piperazin-1-yl)-2-(1H-indazol-5-yloxy)-N-({4-[(1-methylpiperidin-4-yl)amino]-3-nitrophenyl}sulfonyl)benzamide]",1010,–,> 50000,–,5.43,190
